Biological target: T1, rat EP1 receptor (Rattus norvegicus, UniProt P70597)
T1 construct: expressed in transfected cells; host or cells: COS-1 cells, transient transfection with Lipofectamine 2000
T1 sequence (P70597 1-405): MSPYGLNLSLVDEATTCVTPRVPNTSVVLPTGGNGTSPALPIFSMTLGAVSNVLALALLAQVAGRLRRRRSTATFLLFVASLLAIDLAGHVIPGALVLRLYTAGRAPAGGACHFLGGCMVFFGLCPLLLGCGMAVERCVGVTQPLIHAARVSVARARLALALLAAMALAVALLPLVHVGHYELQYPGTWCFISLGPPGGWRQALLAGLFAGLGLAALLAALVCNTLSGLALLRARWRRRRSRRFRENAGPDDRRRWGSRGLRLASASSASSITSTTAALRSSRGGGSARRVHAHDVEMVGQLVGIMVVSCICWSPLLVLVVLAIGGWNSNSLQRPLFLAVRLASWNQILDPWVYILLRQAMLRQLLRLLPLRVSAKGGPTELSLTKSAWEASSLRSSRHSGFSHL
Test: Test for confirmation of EP1 receptor antagonism: inhibition of prostaglandin E2-induced increase in intracellular calcium concentration in rat EP1 receptor-expressing COS-1 cells
Format: cell-based
Settings: prostaglandin E2 10 nM, intracellular calcium fluorescence signal
Procedure: Test for Confirmation of EP1 Receptor Antagonism
(1) Preparation of Rat EP1 Expression Vector
Using Rat Kidney BD Marathon-Ready cDNA (Nippon Becton Dickinson Company, Ltd.) as a template, and using a forward primer shown in (SEQ ID NO:1) and a reverse primer shown in (SEQ ID NO:2), a first run of PCR was carried out using KOD-Plus-Ver 2.0 (Toyobo Co., Ltd.). Further, using this amplification product as a template, and using a forward primer shown in (SEQ ID NO:3) and a reverse primer shown in (SEQ ID NO:4), a second run of PCR was carried out in the same manner. The amplification product obtained by the second run of PCR was incorporated into a vector (pcDNA3.1 D/V5-His-TOPO (registered trademark), Invitrogen Japan K. K.). By a conventional method, the vector containing this amplification product was introduced into E. coli (One Shot TOP10 Competent Cells, Invitrogen Corporation) and transformed. This transformed E. coli was cultured in an LB agar medium for one day. After the culture, colonies were selected and cultured in an LB liquid medium containing 50 μg/mL of ampicillin. After the culture, the vector was purified using a QIAprep Spin Miniprep Kit (Qiagen K. K.). The base sequence of the insertion site of this vector (SEQ ID NO:5) was compared with the rat EP1 base sequence (Ptger1) registered as Accession No. NM_013100 in a publicly-known database (NCBI), and as a result, the base sequences completely matched except for a single base. Further, the amino acid sequence translated by the base sequence completely matched the amino acid sequence of the rat EP1 receptor registered as an NCBI Accession No. NP_037232. Therefore, it was confirmed that the cloned gene sequence was a base sequence of the rat EP1 receptor and the obtained amino acid sequence was that of the rat EP1 receptor. The pcDNA3.1 D/V5-His-TOPO (registered trademark) into which the nucleic acid shown in (SEQ ID NO:5) had been inserted was taken as a rat EP1-expressing vector.
(2) Preparation of Rat EP1 Receptor-Expressing Cells
COS-1 cells (Dainippon Sumitomo Pharma Co., Ltd.) were cultured until they reached confluence in an incubator at 37° C. under a 5% CO2 gas condition, using a D-MEM liquid medium (high glucose and L-glutamine contained, Invitrogen Corporation) to which a penicillin-streptomycin solution (Invitrogen Corporation, final concentration: 100 U/mL as benzylpenicillin; 100 μg/mL as streptomycin) as an antibiotic, MEM nonessential amino acids (Invitrogen Corporation, final concentration: 0.1 mM), and fetal calf serum (Sanko Junyaku Co., Ltd., final concentration: 10%) were added.
(2-2) COS-1 Cell Subculture
The cells that had reached confluence were stripped with 0.05% trypsin/0.53 mM EDTA•4Na (Invitrogen Japan K. K.) and resuspended in the liquid medium. The resuspended cells were diluted and cultured in the liquid medium at a spread ratio from 1:4 to 1:8.
(2-3) Preparation of Cells for Introduction of Rat EP1-Expressing Vector
The cells that had reached confluence were stripped with 0.05% trypsin/0.53 mM EDTA•4Na, and resuspended in a D-MEM liquid medium (high glucose and L-glutamine contained, Invitrogen Corporation) to which MEM nonessential amino acids (final concentration: 0.1 mM) and fetal calf serum (final concentration: 10%) were added. In each well of a Poly D-lysine-coated 96-well microplate (BD BioCoat (registered trademark), Nippon Becton Dickinson Company, Ltd.), this resuspended cell suspension culture was prepared to be 5×10^4 cells/well in 100 μL of the liquid medium, and 100 μL of the cell suspension was dispensed and seeded in each well. After seeding, the cells were cultured in an incubator at 37° C. under a 5% CO2 gas condition. Once the cells for introduction of a rat EP1-expressing vector were adhered (about 2 hours after seeding), introduction of the rat EP1-expressing vector was carried out in the following order.
(2-4) Introduction of Rat EP1-Expressing Vector […]

IC50 [nM] | Structure (SMILES)
49 | COc1cc2cc(-c3ccsc3)n(Cc3cccc(C(=O)NS(C)(=O)=O)n3)c2cc1F [Example 1-5, 6-[6-fluoro-5-methoxy-2-(thiophen-3-yl)indol-1-ylmethyl]-N-(methanesulfonyl)pyridine-2-carboxamide]
81 | CCS(=O)(=O)NC(=O)c1cccc(Cn2c(-c3ccccc3)cc3cc(OC)ccc32)n1 [Example 1-12, N-(ethanesulfonyl)-6-(5-methoxy-2-phenylindol-1-ylmethyl)pyridine-2-carboxamide]
42 | COc1ccc2c(c1)cc(-c1ccccc1)n2Cc1ccc(-c2nnn[nH]2)o1 [Example 2-2, 5-methoxy-2-phenyl-1-[5-(1H-1,2,3,4-tetrazol-5-yl)furan-2-ylmethyl]-1H-indole]
67 | COc1cc2cc(-c3ccccc3)n(Cc3cccc(-c4nnn[nH]4)n3)c2cc1Cl [Example 2-3, 6-chloro-5-methoxy-2-phenyl-1-[6-(1H-1,2,3,4-tetrazol-5-yl)pyridin-2-ylmethyl]-1H-indole]
32 | COc1cc2cc(-c3ccsc3)n(Cc3cccc(-c4nnn[nH]4)n3)c2cc1F [Example 2-4, 6-fluoro-5-methoxy-1-[6-(1H-1,2,3,4-tetrazol-5-yl)pyridin-2-ylmethyl]-2-(thiophen-3-yl)-1H-indole]
31 | CCC(C)c1cc2cc(OC)c(Cl)cc2n1Cc1cccc(C(=O)NS(=O)(=O)CC)n1 (stereo not shown) [Example 4-2, 6-[2-(butan-2-yl)-6-chloro-5-methoxyindol-1-ylmethyl]-N-(ethanesulfonyl)pyridine-2-carboxamide]
47 | CCS(=O)(=O)NC(=O)c1cccc(Cn2c(-c3cc(F)ccc3F)cc3cc(OC)ccc32)n1 [Example 4-5, 6-[2-(2,5-difluorophenyl)-5-methoxyindol-1-ylmethyl]-N-(ethanesulfonyl)pyridine-2-carboxamide]
46 | CCC(C)c1cc2cc(OC)ccc2n1Cc1cccc(C(=O)NS(=O)(=O)CC)n1 (stereo not shown) [Example 4-10, 6-[2-(butan-2-yl)-5-methoxyindol-1-ylmethyl]-N-(ethanesulfonyl)pyridine-2-carboxamide]
30 | CCCS(=O)(=O)NC(=O)c1cccc(Cn2c(-c3ccccc3)cc3cc(OC)ccc32)n1 [Example 4-12, 6-(5-methoxy-2-phenylindol-1-ylmethyl)-N-(propane-1-sulfonyl)pyridine-2-carboxamide]
37 | COc1ccc2c(c1)cc(-c1ccccc1)n2Cc1cccc(C(=O)NS(=O)(=O)C(C)C)n1 [Example 4-13, 6-(5-methoxy-2-phenylindol-1-ylmethyl)-N-(propane-2-sulfonyl)pyridine-2-carboxamide]
63 | COc1ccc2c(c1)cc(-c1ccccc1)n2Cc1cccc(C(=O)NS(=O)(=O)C2CC2)n1 [Example 4-14, N-(cyclopropanesulfonyl)-6-(5-methoxy-2-phenylindol-1-ylmethyl)pyridine-2-carboxamide]
43 | CCCS(=O)(=O)NC(=O)c1cccc(Cn2c(C(C)CC)cc3cc(OC)ccc32)n1 (stereo not shown) [Example 4-16, 6-[2-(butan-2-yl)-5-methoxyindol-1-ylmethyl]-N-(propane-1-sulfonyl)pyridine-2-carboxamide]
49 | CCC(C)c1cc2cc(OC)ccc2n1Cc1cccc(C(=O)NS(=O)(=O)C(C)C)n1 (stereo not shown) [Example 4-17, 6-[2-(butan-2-yl)-5-methoxyindol-1-ylmethyl]-N-(propane-2-sulfonyl)pyridine-2-carboxamide]
31 | CCC(C)c1cc2cc(OC)ccc2n1Cc1cccc(C(=O)NS(=O)(=O)C2CC2)n1 (stereo not shown) [Example 4-18, 6-[2-(butan-2-yl)-5-methoxyindol-1-ylmethyl]-N-(cyclopropanesulfonyl)pyridine-2-carboxamide]
60 | COc1cc2cc(-c3ccccc3)n(Cc3cccc(C(=O)NS(C)(=O)=O)n3)c2cc1F [Example 4-19, 6-(6-fluoro-5-methoxy-2-phenylindol-1-ylmethyl)-N-(methanesulfonyl)pyridine-2-carboxamide]
40 | CCS(=O)(=O)NC(=O)c1cccc(Cn2c(-c3ccccc3)cc3cc(OC)c(F)cc32)n1 [Example 4-20, N-(ethanesulfonyl)-6-(6-fluoro-5-methoxy-2-phenylindol-1-ylmethyl)pyridine-2-carboxamide]
59 | CCCS(=O)(=O)NC(=O)c1cccc(Cn2c(-c3ccccc3)cc3cc(OC)c(F)cc32)n1 [Example 4-22, 6-(6-fluoro-5-methoxy-2-phenylindol-1-ylmethyl)-N-(propane-1-sulfonyl)pyridine-2-carboxamide]
28 | COc1cc2cc(-c3ccccc3)n(Cc3cccc(C(=O)NS(=O)(=O)C4CC4)n3)c2cc1F [Example 4-23, N-(cyclopropanesulfonyl)-6-(6-fluoro-5-methoxy-2-phenylindol-1-ylmethyl)pyridine-2-carboxamide]
23 | CCC(C)c1cc2cc(OC)ccc2n1Cc1cccc(-c2nnn[nH]2)n1 (stereo not shown) [Example 5-1, 2-(butan-2-yl)-5-methoxy-1-[6-(1H-1,2,3,4-tetrazol-5-yl)pyridin-2-ylmethyl]-1H-indole]
31 | COc1cc2cc(-c3ccccc3)n(Cc3cccc(-c4nnn[nH]4)n3)c2cc1F [Example 5-3, 6-fluoro-5-methoxy-2-phenyl-1-[6-(1H-1,2,3,4-tetrazol-5-yl)pyridin-2-ylmethyl]-1H-indole]
35 | COc1cc2cc(-c3ccoc3)n(Cc3cccc(-c4nnn[nH]4)n3)c2cc1Cl [Example 5-4, 6-chloro-2-(furan-3-yl)-5-methoxy-1-[6-(1H-1,2,3,4-tetrazol-5-yl)pyridin-2-ylmethyl]-1H-indole]
33 | COc1cc2cc(C3(C)CC3)n(Cc3cccc(-c4nnn[nH]4)n3)c2cc1Cl [Example 5-6, 6-chloro-5-methoxy-2-(1-methylcyclopropyl)-1-[6-(1H-1,2,3,4-tetrazol-5-yl)pyridin-2-ylmethyl]-1H-indole]
64 | COc1ccc2c(c1)cc(C1(C)CC1)n2Cc1ccc(-c2nnn[nH]2)o1 [Example 5-7, 5-methoxy-2-(1-methylcyclopropyl)-1-[5-(1H-1,2,3,4-tetrazol-5-yl)furan-2-ylmethyl]-1H-indole]
22 | COc1cc2cc(-c3ccccc3)n(Cc3cccc(-c4noc(=O)[nH]4)n3)c2cc1F [Example 6-6, 3-[6-(6-fluoro-5-methoxy-2-phenylindol-1-ylmethyl)pyridin-2-yl]-4,5-dihydro-1,2,4-oxadiazol-5-one]
97 | COc1cc2cc(-c3ccccc3)n(Cc3cccc(C(=O)NC#N)n3)c2cc1F [Example 8-7, N-cyano-6-(6-fluoro-5-methoxy-2-phenylindol-1-ylmethyl)pyridine-2-carboxamide]

— patent publication US8796247B2, “Indole derivative, and pharmacologically acceptable salt thereof” (Kissei Pharmaceutical Co., Ltd., priority 2011, dated 2014)
